Source: patent US6268391A, “Benzylidene-1,3-dihydro-indol-2-one derivatives a receptor tyrosine kinase inhibitors, particularly of Raf kinases” (Glaxo Wellcome Inc., priority 1997, dated 2001)

The molecules below were run against T1, Human cRaf1 (Homo sapiens, UniProt P04049) (assay: Raf kinase assay (cRaf1 assay / Raf/MEK cascade assay)). Conditions: not given.
T1 construct: poly-histidine (C); made in house
Type: biochemical

T1 sequence (P04049 whole entry): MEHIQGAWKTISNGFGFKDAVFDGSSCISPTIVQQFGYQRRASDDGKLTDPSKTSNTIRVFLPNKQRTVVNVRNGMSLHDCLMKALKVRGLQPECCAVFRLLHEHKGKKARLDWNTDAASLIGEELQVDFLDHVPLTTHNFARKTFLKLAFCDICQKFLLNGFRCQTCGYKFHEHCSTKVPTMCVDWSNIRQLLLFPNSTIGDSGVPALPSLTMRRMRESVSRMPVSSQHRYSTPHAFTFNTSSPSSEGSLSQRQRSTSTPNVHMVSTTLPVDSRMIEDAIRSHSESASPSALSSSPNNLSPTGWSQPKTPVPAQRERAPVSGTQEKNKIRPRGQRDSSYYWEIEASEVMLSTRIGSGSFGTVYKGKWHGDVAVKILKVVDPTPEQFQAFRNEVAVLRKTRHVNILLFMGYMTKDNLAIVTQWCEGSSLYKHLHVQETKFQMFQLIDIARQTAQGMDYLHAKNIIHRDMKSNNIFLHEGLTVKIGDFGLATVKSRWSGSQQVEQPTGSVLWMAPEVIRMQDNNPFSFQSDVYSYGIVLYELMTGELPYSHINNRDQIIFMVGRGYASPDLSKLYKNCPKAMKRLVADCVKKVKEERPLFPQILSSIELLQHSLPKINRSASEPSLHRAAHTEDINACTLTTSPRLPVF

Row | SMILES | IC50 [µM]
1 | CN1CCN(C(=O)Oc2c(Br)cc(C=C3C(=O)Nc4ccc(I)cc43)cc2Br)CC1 [Example 153, 2,6-Dibromo-4-[(5-iodo-2-oxo-1,2-dihydro-3H-indol-3-ylidene)methyl]phenyl 4-methyltetrahydro-1(2H)-pyrazinecarboxylate] | 10 to 100

Same assay, conditions: Table 3; read-out: Raf Kinase activity

Row | IC50 [µM] | SMILES
2 | < 1 | Nc1nc2ccc3c(c2s1)C(=Cc1cc(Br)c(O)c(Br)c1)C(=O)N3 [Example 135, 2-Amino-8-(3,5-dibromo-4-hydroxy-benzylidene)-6,8-dihydro-1-thia-3,6-diaza-as-indacen-7-one]
3 | < 1 | NC(=O)c1ccc2c(c1)C(=Cc1cc(Br)c(O)c(Br)c1)C(=O)N2 [Example 137, 3-(3,5-Dibromo-4-hydroxy-benzylidene)-2-oxo-2,3-dihydro-1H-indol-5-carboxylic acid amide]
4 | < 1 | O=C1Nc2ccc(-c3ccsc3)cc2C1=Cc1cc(Br)c(O)c(Br)c1 [Example 139, 3-(3,5-Dibromo-4-hydroxy-benzylidene)-5-thiophen-3-yl-1,3-dihydro-indol-2-one]
5 | < 1 | CNc1nc(-c2ccc3c(c2)C(=Cc2cc(Br)c(O)c(Br)c2)C(=O)N3)cs1 [Example 140]
6 | < 1 | CNc1nc(-c2ccc3c(c2)C(=Cc2cc(Cl)c(O)c(Cl)c2)C(=O)N3)cs1 [Example 141]
7 | < 1 | Cc1nnc(-c2ccc3c(c2)C(=Cc2cc(Br)c(O)c(Br)c2)C(=O)N3)o1 [Example 145, 3-(3,5-Dibromo-4-hydroxy-benzylidene)-5-(5-methyl-[1,3,4]oxadiazol-2-yl)-1,3-dihydro-indol-2-one]
8 | 10 to 100 | CC(C)COC(=O)Oc1c(Br)cc(C=C2C(=O)Nc3ccc(Cl)cc32)cc1Br [Example 148, 2,6-Dibromo-4-[(5-chloro-2-oxo-1,2-dihydro-3H-indol-3-ylidene)methyl]phenyl isobutyl carbonate]
9 | 10 to 100 | O=C1Nc2ccc(I)cc2C1=Cc1cc(Br)c(OC(=O)N2CCOCC2)c(Br)c1 [Example 151, 2,6-Dibromo-4-[(5-iodo-2-oxo-1,2-dihydro-3H-indol-3-ylidene)methyl]phenyl 4-morpholinecarboxylate]
10 | < 1 | O=C1Nc2ccc(S(=O)(=O)N(CCO)CCO)cc2C1=Cc1cc(Br)c(O)c(Br)c1 [Example 157, 3-[(3,5-Dibromo-4-hydroxyphenyl)methylidene]-N,N-bis(2-hydroxyethyl)-2-oxo-5-indolinesulfonamide]
11 | < 1 | O=C(CO)Nc1ccc2c(c1)C(=Cc1cc(Br)c(O)c(Br)c1)C(=O)N2 [Example 160, N-3-[(3,5-Dibromo-4-hydroxyphenyl)methylidene]-2-oxo-2,3-dihydro-1H-indol-5-yl-2-hydroxyacetamide]
12 | < 1 | O=C1Nc2ccc(-c3cc(C(F)(F)F)cc(C(F)(F)F)c3)cc2C1=Cc1cc(Br)c(O)c(Br)c1 [Example 169, 5-[3,5-bis(Trifluoromethyl)phenyl]-3-[(3,5-dibromo-4-hydroxyphenyl)methylidene]-1,3-dihydro-2H-indol-2-one]
13 | < 1 | O=C1Nc2ccc(C(=O)NCCO)cc2C1=Cc1cc(Br)c(O)c(Br)c1 [Example 172, 3-[(3,5-Dibromo-4-hydroxyphenyl)methylidene]-N-(2-hydroxyethyl)-2-oxo-5-indolinecarboxamide]

Second part, the molecule before the results:

Row | SMILES | IC50 [µM]
14 | O=C1Nc2ccc3[nH]nnc3c2C1=Cc1cc(Br)c(O)c(Br)c1 [Example 132, 8-(3,5-Dibromo-4-hydroxy-benzylidene)-6,8-dihydro-3H-1,2,3,6-tetraaza-as-indacen-7-one] | < 1
15 | Nc1nc(-c2ccc3c(c2)C(=Cc2cc(Cl)c(O)c(Cl)c2)C(=O)N3)cs1 [Example 134, 5-(2-Amino-thiazol-4-yl)-3-(3,5-dichloro-4-hydroxy-benzylidene)-1,3-dihydro-indol-2-one] | < 1
16 | CC(=O)Nc1nc(-c2ccc3c(c2)C(=Cc2cc(Br)c(O)c(Br)c2)C(=O)N3)cs1 [Example 136, 5-(N-Acetyl-2-amino-thiazol-4-yl)-3-(3,5-dibromo-4-hydroxy-benzylidene)-1,3-dihydro-indol-2-one] | < 1
17 | O=C1Nc2ccc(-c3cccnc3)cc2C1=Cc1cc(Br)c(O)c(Br)c1 [Example 138, 3-(3,5-Dibromo-4-hydroxy-benzylidene)-5-pyrid-3-yl-1,3-dihydro-indol-2-one] | < 1
18 | O=C1Nc2ccc(-c3nnn[nH]3)cc2C1=Cc1cc(Br)c(O)c(Br)c1 [Example 142, 3-(3,5-Dibromo-4-hydroxy-benzylidene)-5-(1H-tetrazol-5-yl)-1,3-dihydro-indol-2-one] | < 1
19 | Cc1nc(-c2ccc3c(c2)C(=Cc2cc(Br)c(OC(=O)N(CCO)CCO)c(Br)c2)C(=O)N3)cs1 [Example 144, N[bis(2-Hydroxyethyl)]-carbamic acid 2,6 dibromo-4-[5-(2-methyl-thiazol-4-yl)-2-oxo-1,2-dihydro-indol-3-ylidenemethyl]-phenyl ester] | 10 to 100
20 | O=C(OCc1ccccc1)Oc1c(Br)cc(C=C2C(=O)Nc3ccc(Cl)cc32)cc1Br [Example 146, Benzyl 2,6-dibromo-4-[(5-chloro-2-oxo-1,2-dihydro-3H-indol-3-ylidene)methyl]phenyl carbonate] | 10 to 100
21 | CCOC(=O)Oc1c(Br)cc(C=C2C(=O)Nc3ccc(Cl)cc32)cc1Br [Example 147, 2,6-Dibromo-4-[(5-chloro-2-oxo-1,2-dihydro-3H-indol-3-ylidene)methyl]phenyl ethyl carbonate] | 10 to 100
22 | O=C(OCc1cccnc1)Oc1c(Br)cc(C=C2C(=O)Nc3ccc(Cl)cc32)cc1Br [Example 149, 2,6-Dibromo-4-[(5-chloro-2-oxo-1,2-dihydro-3H-indol-3-ylidene)methyl]phenyl 3-pyridinylmethyl carbonate] | 10 to 100
23 | CC(C)(C)C(=O)OCOc1c(Br)cc(C=C2C(=O)Nc3ccc(Cl)cc32)cc1Br [Example 150, 2,6-Dibromo-4-[(5-chloro-2-oxo-1,2-dihydro-3H-indol-3-ylidene)methyl]phenoxymethyl pivalate] | 10 to 100
24 | O=C(NCCOCCO)Oc1c(Br)cc(C=C2C(=O)Nc3ccc(I)cc32)cc1Br [Example 152, 2,6-Dibromo-4-[(5-iodo-2-oxo-1,2-dihydro-3H-indol-3-ylidene)methyl]phenyl N-[2-(2-hydroxyethoxy)ethyl]carbamate] | < 1
25 | CCN(CC)C(=O)Oc1c(Br)cc(C=C2C(=O)Nc3ccc(I)cc32)cc1Br [Example 154, 2,6-Dibromo-4-[(5-iodo-2-oxo-1,2-dihydro-3H-indol-3-ylidene)methyl]phenyl N,N-diethylcarbamate] | 10 to 100
26 | O=C1Nc2ccc(C(=O)O)cc2C1=Cc1cc(Br)c(O)c(Br)c1 [Example 156, 3-(3,5-Dibromo-4-hydroxy-benzylidene)-2-oxo-2,3-dihydro-1H-indol-5-carboxylic acid] | < 1
27 | O=C1Nc2ccc(NC(=O)c3ccccc3)cc2C1=Cc1cc(Br)c(O)c(Br)c1 [Example 158, N-3-[(3,5-Dibromo-4-hydroxyphenyl)methylidene]-2-oxo-2,3-dihydro-1H-indol-5-ylbenzamide] | < 1
28 | CC(=O)Nc1ccc2c(c1)C(=Cc1cc(Br)c(O)c(Br)c1)C(=O)N2 [Example 159] | < 1
29 | O=C1Nc2ccc(C(=O)NCCCc3ccccc3)cc2C1=Cc1cc(Br)c(O)c(Br)c1 [Example 161, 3-[(3,5-Dibromo-4-hydroxyphenyl)methylidene]-2-oxo-N-(3-phenylpropyl)-5-indolinecarboxamide] | < 1
30 | O=C1Nc2ccc(C(=O)NCc3ccccc3)cc2C1=Cc1cc(Br)c(O)c(Br)c1 [Example 162, N-Benzyl-3-[(3,5-dibromo-4-hydroxyphenyl)methylidene]-2-oxo-5-indolinecarboxamide] | < 1
31 | CN(C)c1ccc2c(c1)C(=Cc1cc(Br)c(O)c(Br)c1)C(=O)N2 [Example 163, 3-[(3,5-Dibromo-4-hydroxyphenyl)methylidene]-5-(dimethylamino)-1,3-dihydro-2H-indol-2-one] | < 1
32 | CCN(CC)C(=O)Oc1c(Br)cc(C=C2C(=O)Nc3ccc(S(N)(=O)=O)cc32)cc1Br [Example 164, 4-[5-(Aminosulfonyl)-2-oxo-1,2-dihydro-3H-indol-3-ylidene]methyl-2,6-dibromophenyl N,N-diethylcarbamate] | 1 to 10
33 | Cc1ccc2c3c(ccc2n1)NC(=O)C3=Cc1cc(Br)c(O)c(Br)c1 [Example 165, 1-[(3,5-Dibromo-4-hydroxyphenyl)methylidene]-7-methyl-1,3-dihydro-2H-pyrrolo[3,2-f]quinolin-2-one] | < 1
34 | Nc1ccc2c(c1)C(=Cc1cc(Br)c(O)c(Br)c1)C(=O)N2 [Example 166, 5-Amino-3-[(3,5-dibromo-4-hydroxyphenyl)methylidene]-1,3-dihydro-2H-indol-2-one] | < 1
35 | CCN(CC)C(=O)Oc1c(Br)cc(C=C2C(=O)Nc3ccc(C(=O)c4ccccc4)cc32)cc1Br [Example 167, 4-[(5-Benzoyl-2-oxo-1,2-dihydro-3H-indol-3-yildene)methyl]-2,6-dibromophenyl N,N-diethylcarbamate] | 10 to 100
36 | CN(C)CCNC(=O)c1ccc2c(c1)C(=Cc1cc(Br)c(O)c(Br)c1)C(=O)N2 [Example 168, 3-[(3,5-Dibromo-4-hydroxyphenyl)methylidene]-N-(2-(dimethylamino)ethyl]-2-oxo-5-indolinecarboxamide] | < 1
37 | O=C1Nc2ccc(-c3ccc(Cl)cc3Cl)cc2C1=Cc1cc(Br)c(O)c(Br)c1 [Example 171, 3-[(3,5-Dibromo-4-hydroxyphenyl)methylidene]-5-(2,4-dichlorophenyl)-1,3-dihydro-2H-indol-2-one] | < 1
38 | CN(C)c1nc(-c2ccc3c(c2)C(=Cc2cc(Br)c(O)c(Br)c2)C(=O)N3)cs1 [Example 173, 3-[(3,5-Dibromo-4-hydroxyphenyl)methylidene]-5-[2-(dimethylamino)-1,3-thiazol-4-yl]-1,3-dihydro-2H-indol-2-one] | < 1
39 | CS(=O)(=O)c1ccc2c(c1)C(=Cc1cc(Br)c(O)c(Br)c1)C(=O)N2 [Example 174, 3-[(3,5-Dibromo-4-hydroxyphenyl)methylidene]-5-(methylsulfonyl)-1,3-dihydro-2H-indol-2-one] | < 1
